Results: US7652020B2, “Compounds for the treatment of inflammatory disorders” (Schering Corporation, priority 2004, dated 2010)

Biological target: T1, purified catalytic domain of recombinant human TACE (rhTACEc) (Homo sapiens, UniProt P78536, N452Q/S266A)
T1 construct: Residue 215 to 477 with two mutation (S266A and N452Q) and a 6×His tail; 6xHis (C); made in house; host or cells: baculovirus/Hi5 insect cells
Test: TACE kinetic assay: cleavage of internally quenched peptide substrate SPDL-3, fluorescence
Assay type: biochemical
Conditions: Ki (nM), TACE, representative compounds, numeric values

T1 sequence (P78536 215-477 S266A/N452Q): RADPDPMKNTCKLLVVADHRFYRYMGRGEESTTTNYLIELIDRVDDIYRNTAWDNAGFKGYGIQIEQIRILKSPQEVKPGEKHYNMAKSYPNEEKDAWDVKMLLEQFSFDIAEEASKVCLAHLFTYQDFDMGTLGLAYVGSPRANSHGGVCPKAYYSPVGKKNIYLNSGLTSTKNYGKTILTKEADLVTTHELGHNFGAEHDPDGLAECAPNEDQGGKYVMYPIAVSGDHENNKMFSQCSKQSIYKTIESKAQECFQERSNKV

| SMILES | Ki |
| --- | --- |
| Cc1nc2ccccc2n1Cc1ccc(CNC(=O)[C@H](O)[C@@H](O)C(=O)N2Cc3ccccc3C2)s1 | 0.5 nM |

Same assay, conditions: TACE inhibitory activity, class symbols; read-out: Ki

| SMILES | Ki |
| --- | --- |
| CC#CCOc1cc([C@@H](C)NC(=O)[C@](C)(O)[C@@H](O)C(=O)N2Cc3cccnc3C2)ccc1-n1cccn1 [Compound 2360] | < 20 nM |
| CC(c1cccc(Cl)c1)N(C(=O)[C@H](O)[C@@H](O)C(=O)N[C@H](C)c1ccc(-n2cccn2)cc1)C1CC1 (stereo partly drawn) [Compound 2483] | > 1000 nM |
| CNc1nc2c(s1)CN(C(=O)[C@H](O)[C@@H](O)C(=O)N[C@H](C)c1ccc(-n3cccn3)cc1)CC2 [Compound 2084] | 20 to 100 nM |
| CCOc1cc(F)ccc1-c1ccc(CNC(=O)[C@H](OC)[C@@H](O)C(=O)N2Cc3cccnc3C2)cc1 [Compound 2477] | 100 to 1000 nM |
| CNc1nccc([C@H]2CCCN2C(=O)[C@H](O)[C@@H](O)C(=O)N[C@H](C)c2ccc(-n3cccn3)cc2)n1 [Compound 2249] | < 20 nM |
| CCOc1ncccc1-c1ccc(CNC(=O)[C@H](O)[C@@H](O)C(=O)N2CCC[C@@H]2c2cccc(Cl)c2)cc1 [Compound 2334] | < 20 nM |
| C[C@@H](NC(=O)[C@](C)(O)[C@@H](O)C(=O)N1Cc2cccnc2C1)c1ccc(-n2cccc2C#N)cc1 [Compound 2354] | 20 to 100 nM |
| O=C(NCc1ccc(-c2ccccc2OCCC2CCCC2)cc1)[C@H](O)[C@@H](O)C(=O)N1CCCC1 [Compound 2339] | 20 to 100 nM |
| C[C@@H](NC(=O)[C@](C)(O)[C@@H](O)C(=O)N1Cc2cccnc2C1)c1ccc(-n2cccn2)cc1 [Compound 2031] | < 20 nM |
| O=C(NCc1ccc(-c2ccccc2OCC2CCCC2)cc1)[C@H](O)[C@@H](O)C(=O)N1CCCC1 [Compound 2340] | 20 to 100 nM |
| C[C@@H](NC(=O)[C@H](O)[C@@H](O)C(=O)N1Cc2cccnc2C1)c1ccc(-n2cccn2)cc1 [Compound 2032] | < 20 nM |
| N#Cc1ccccc1N1CCC2(CC1)CC2NC(=O)[C@H](O)[C@@H](O)C(=O)N1Cc2ccccc2C1 (stereo partly drawn) [Compound 2154] | > 1000 nM |
| C[C@@H](NC(=O)[C@H](O)[C@@H](O)C(=O)N1Cc2cnc(N)nc2C1)c1ccc(-n2cccn2)cc1 [Compound 2043] | < 20 nM |
| CCNc1nc([C@H]2CCCN2C(=O)[C@H](O)[C@@H](O)C(=O)N[C@H](C)c2ccc(-n3cccn3)cc2)cs1 [Compound 2256] | < 20 nM |
| O=C(NCc1ccc(-c2ccccc2OCCC2CCCCC2)cc1)[C@H](O)[C@@H](O)C(=O)N1CCCC1 [Compound 2338] | < 20 nM |
| C[C@@H](NC(=O)[C@H](O)[C@@H](O)C(=O)N1CCC(=O)N1c1cccc(Cl)c1)c1ccc(-n2cccn2)cc1 [Compound 2494] | 100 to 1000 nM |
| Cn1c([C@H](O)[C@@H](O)C(=O)NCC2CCN(c3ccc(F)cc3C#N)CC2)nc2ccccc21 [Compound 2394] | > 1000 nM |
| Cn1c(-c2ccccc2)cnc1[C@H](O)[C@@H](O)C(=O)NCC1CCN(c2ccc(F)cc2C#N)CC1 [Compound 2402] | > 1000 nM |
| C[C@@H](NC(=O)[C@](C)(O)[C@@H](O)C(=O)N1Cc2ccncc2C1)c1ccc(-n2cccn2)cc1 [Compound 2039] | < 20 nM |

Same assay, conditions: TACE, representative compounds, numeric values; read-out: Ki

| SMILES | Ki |
| --- | --- |
| CC#CCOc1cc([C@@H](C)NC(=O)[C@](C)(O)[C@@H](O)C(=O)N2Cc3cccnc3C2)ccc1-n1cccn1 [drawing 1313] | 1.44 nM |
| CC#CCOc1cc([C@@H](C)NC(=O)[C@H](O)[C@@H](O)C(=O)N2Cc3cccnc3C2)ccc1-n1cccn1 [drawing 1292] | 0.25 nM |
| CNc1nc([C@H]2c3ccccc3CN2C(=O)[C@H](O)[C@@H](O)C(=O)N[C@H](C)c2ccc(-n3cccn3)cc2)cs1 | 0.5 nM |
| Cc1nc2ccccc2n1Cc1csc(CNC(=O)[C@H](O)[C@@H](O)C(=O)N2CCCC2c2cccc(N(C)C)c2)n1 (stereo partly drawn) | 1 nM |
| C[C@@H](NC(=O)[C@H](O)[C@@H](O)C(=O)N1CCc2ccccc2[C@@H]1c1csc(N)n1)c1ccc(-n2cccn2)cc1 [drawing 1309] | 1.1 nM |
| C[C@@H](NC(=O)[C@H](O)[C@@H](O)C(=O)N1CCC[C@@H]1c1cccc(Cl)c1)c1ccc(-n2cccn2)cc1 [drawing 1304] | 0.8 nM |
| CNc1nc([C@H]2CCCN2C(=O)[C@H](O)[C@@H](O)C(=O)N[C@H](C)c2ccc(-n3cccn3)cc2)c(C)s1 [drawing 1315] | 2 nM |
| CC#CCOc1cc([C@@H](C)NC(=O)[C@H](O)[C@@H](O)C(=O)N2CCC[C@@H]2c2csc(NC(C)C)n2)ccc1-n1cccn1 | 2.9 nM |
| C[C@@H](NC(=O)[C@H](O)[C@@H](O)C(=O)N1CCC[C@@H]1c1ccn(-c2ccccc2)n1)c1ccc(-n2cccn2)cc1 [drawing 1318] | 2.3 nM |
| CC#CCOc1cc([C@@H](C)NC(=O)[C@H](O)[C@@H](O)C(=O)N2CCC[C@@H]2c2cccc(Cl)c2)ccc1-n1cccn1 [drawing 1305] | 0.85 nM |
